Data as given in patent publication US9708318B2, “Bicyclic heterocycles as FGFR4 inhibitors” (Incyte Corporation, priority 2015, dated 2017).
Where two headings read alike, the source gives them in different places.

Legend:
[1] = biological target: FGFR2 (Homo sapiens (Human), UniProt P21802); test: FGFR Enzymatic Assay (FRET peptide phosphorylation), FGFR2; format: biochemical
Protocol: (§1) The inhibitor potency of the exemplified compounds was measured in an enzyme assay that measures peptide phosphorylation using FRET measurements to detect product formation. Inhibitors were serially diluted in DMSO and a volume of 0.5 μL was transferred to the wells of a 384-well plate.
(§2) The enzymes were purchased from Millipore or Invitrogen.
(§3) GraphPad prism3 was used to analyze the data.

[2] = biological target: FGFR3 enzyme (Homo sapiens (Human), UniProt P22607); test: FGFR Enzymatic Assay (FRET peptide phosphorylation), FGFR3; format: biochemical; settings: for IC50: read-out: FGFR3 IC50
FGFR3 enzyme, sequence (P22607 23-806): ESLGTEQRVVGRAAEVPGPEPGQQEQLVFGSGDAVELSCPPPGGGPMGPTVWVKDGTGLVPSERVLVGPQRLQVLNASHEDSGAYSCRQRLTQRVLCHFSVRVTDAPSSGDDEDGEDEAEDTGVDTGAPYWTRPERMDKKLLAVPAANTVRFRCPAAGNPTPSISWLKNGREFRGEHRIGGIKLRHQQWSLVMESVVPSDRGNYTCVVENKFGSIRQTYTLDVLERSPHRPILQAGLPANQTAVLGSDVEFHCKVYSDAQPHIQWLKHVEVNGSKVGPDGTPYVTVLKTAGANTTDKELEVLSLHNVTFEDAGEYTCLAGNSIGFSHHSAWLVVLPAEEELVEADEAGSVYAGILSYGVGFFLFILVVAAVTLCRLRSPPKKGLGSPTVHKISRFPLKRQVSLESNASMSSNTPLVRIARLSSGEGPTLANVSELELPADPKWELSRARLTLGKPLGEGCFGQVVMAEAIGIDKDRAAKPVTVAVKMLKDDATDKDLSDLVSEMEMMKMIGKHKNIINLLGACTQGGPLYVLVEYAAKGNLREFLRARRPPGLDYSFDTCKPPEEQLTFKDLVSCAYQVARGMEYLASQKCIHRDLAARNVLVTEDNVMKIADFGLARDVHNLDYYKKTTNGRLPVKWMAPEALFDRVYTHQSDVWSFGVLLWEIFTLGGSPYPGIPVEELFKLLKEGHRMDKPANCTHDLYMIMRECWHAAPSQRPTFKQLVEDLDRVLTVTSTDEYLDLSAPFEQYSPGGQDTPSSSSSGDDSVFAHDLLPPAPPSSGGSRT
Protocol: as §1, §3

[3] = biological target: FGFR4 (Homo sapiens (Human), UniProt P22455); test: FGFR Enzymatic Assay (FRET peptide phosphorylation), FGFR4; format: biochemical; settings: for FGFR1/FGFR4 IC50 ratio / FGFR2/FGFR4 IC50 ratio / FGFR3/FGFR4 IC50 ratio: FGFR4 selectivity
FGFR4, sequence (P22455 22-802): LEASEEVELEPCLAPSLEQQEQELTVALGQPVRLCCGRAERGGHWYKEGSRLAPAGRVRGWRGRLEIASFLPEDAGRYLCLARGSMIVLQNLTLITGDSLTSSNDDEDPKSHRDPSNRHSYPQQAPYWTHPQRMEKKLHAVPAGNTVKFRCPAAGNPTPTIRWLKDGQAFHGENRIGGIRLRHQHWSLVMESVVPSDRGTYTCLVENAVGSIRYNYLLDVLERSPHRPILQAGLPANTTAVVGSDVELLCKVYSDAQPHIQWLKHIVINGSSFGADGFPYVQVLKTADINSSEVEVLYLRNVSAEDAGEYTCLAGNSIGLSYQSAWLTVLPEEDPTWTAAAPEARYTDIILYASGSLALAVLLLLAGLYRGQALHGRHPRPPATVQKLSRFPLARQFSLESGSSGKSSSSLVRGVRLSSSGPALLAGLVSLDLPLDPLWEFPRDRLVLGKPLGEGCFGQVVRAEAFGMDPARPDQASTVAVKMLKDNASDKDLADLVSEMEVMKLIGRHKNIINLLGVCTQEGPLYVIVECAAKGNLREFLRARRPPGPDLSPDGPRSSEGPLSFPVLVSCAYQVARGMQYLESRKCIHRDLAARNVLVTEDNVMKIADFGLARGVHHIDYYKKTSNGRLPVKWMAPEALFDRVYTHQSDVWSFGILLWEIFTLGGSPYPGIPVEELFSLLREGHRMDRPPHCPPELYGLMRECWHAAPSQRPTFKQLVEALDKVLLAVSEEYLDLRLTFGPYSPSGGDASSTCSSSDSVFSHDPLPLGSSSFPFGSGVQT
Protocol: as §1, §2, §3

[4] = biological target: FGFR1 (Homo sapiens (Human), UniProt P11362); test: FGFR Enzymatic Assay (FRET peptide phosphorylation), FGFR1
FGFR1, sequence (P11362 22-822): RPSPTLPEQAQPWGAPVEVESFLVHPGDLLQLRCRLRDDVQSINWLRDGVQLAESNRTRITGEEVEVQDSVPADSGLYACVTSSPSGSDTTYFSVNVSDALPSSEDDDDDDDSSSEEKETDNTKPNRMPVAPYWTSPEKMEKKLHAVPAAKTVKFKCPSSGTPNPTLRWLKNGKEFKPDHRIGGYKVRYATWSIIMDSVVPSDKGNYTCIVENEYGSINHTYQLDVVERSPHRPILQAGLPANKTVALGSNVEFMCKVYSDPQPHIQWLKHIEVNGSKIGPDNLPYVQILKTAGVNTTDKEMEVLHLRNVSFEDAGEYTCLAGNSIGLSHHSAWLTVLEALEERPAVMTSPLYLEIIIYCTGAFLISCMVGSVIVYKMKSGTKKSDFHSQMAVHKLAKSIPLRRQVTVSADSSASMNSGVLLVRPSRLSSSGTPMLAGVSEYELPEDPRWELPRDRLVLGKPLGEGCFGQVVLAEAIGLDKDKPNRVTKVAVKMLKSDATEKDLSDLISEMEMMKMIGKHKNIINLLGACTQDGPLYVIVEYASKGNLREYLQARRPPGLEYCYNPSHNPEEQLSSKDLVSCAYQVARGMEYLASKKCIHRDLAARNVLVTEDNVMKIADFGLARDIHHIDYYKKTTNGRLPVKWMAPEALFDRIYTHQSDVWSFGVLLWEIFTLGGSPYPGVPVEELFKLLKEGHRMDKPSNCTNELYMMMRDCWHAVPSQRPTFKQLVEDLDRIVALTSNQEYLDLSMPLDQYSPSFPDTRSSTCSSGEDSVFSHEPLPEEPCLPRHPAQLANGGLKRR

[5] = FGFR3 selectivity, pre-incubated for 4 hours
[6] = pre-incubated for 5 to 10 minutes

FGFR2, sequence (P21802 22-821): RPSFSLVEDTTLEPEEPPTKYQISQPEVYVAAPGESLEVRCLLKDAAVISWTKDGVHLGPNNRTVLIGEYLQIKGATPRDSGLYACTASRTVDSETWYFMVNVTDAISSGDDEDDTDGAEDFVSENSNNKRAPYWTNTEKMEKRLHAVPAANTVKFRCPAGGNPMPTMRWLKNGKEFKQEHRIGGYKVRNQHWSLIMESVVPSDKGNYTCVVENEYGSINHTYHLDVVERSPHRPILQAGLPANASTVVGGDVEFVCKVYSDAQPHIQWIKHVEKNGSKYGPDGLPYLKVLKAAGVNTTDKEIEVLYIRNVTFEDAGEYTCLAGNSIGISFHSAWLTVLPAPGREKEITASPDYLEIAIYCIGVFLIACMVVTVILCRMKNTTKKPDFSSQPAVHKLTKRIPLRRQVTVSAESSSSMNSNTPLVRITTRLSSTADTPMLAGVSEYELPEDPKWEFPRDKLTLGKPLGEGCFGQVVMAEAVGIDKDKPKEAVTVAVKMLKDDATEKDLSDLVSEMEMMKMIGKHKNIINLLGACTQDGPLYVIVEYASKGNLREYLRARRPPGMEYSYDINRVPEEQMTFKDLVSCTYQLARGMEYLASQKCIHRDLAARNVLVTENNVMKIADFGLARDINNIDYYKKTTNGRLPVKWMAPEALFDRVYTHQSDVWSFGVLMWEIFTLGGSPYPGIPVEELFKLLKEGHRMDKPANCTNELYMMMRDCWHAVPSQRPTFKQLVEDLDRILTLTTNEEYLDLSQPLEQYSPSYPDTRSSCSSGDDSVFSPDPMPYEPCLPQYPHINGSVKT

Compound: COc1cc(OC)c(F)c(N2Cc3cnc(-c4cn(C)nc4C)cc3N(c3ccncn3)C2=O)c1F [Example 45, 3-(2,6-difluoro-3,5-dimethoxyphenyl)-7-(1,3-dimethyl-1H-pyrazol-4-yl)-1-pyrimidin-4-yl-3,4-dihydropyrido[4,3-d]pyrimidin-2(1H)-one]
- IC50 ([1]; pre-incubated for 4 hours): 10 to 30 nM
- FGFR1/FGFR3 IC50 ratio [2, 5]: >10
- FGFR4/FGFR3 IC50 ratio [2, 5]: >10
- IC50 ([2]; pre-incubated for 4 hours): < 10 nM
- IC50 ([3]; pre-incubated for 4 hours): 30 to 200 nM
- IC50 ([4]; FGFR1 IC50 (nM), pre-incubated for 4 hours): 30 to 200 nM

Compound: COc1cc(OC)c(F)c(N2Cc3cnc(-c4cncc(C#N)c4)cc3C3(CC3)C2=O)c1F [Example 8, 5-(2′-(2,6-difluoro-3,5-dimethoxyphenyl)-3′-oxo-2′,3′-dihydro-1′H-spiro[cyclopropane-1,4′-[2,7]naphthyridine]-6′-yl)nicotinonitrile]
- IC50 [1, 6]: > 200 nM
- IC50 ([1]; pre-incubated for 4 hours): > 200 nM
- FGFR1/FGFR3 IC50 ratio [2, 5]: >5
- IC50 [2, 6]: 30 to 200 nM
- IC50 ([2]; pre-incubated for 4 hours): 30 to 200 nM
- FGFR1/FGFR4 IC50 ratio [3, 6]: >50
- FGFR2/FGFR4 IC50 ratio [3, 6]: >10
- FGFR3/FGFR4 IC50 ratio [3, 6]: >10
- FGFR1/FGFR4 IC50 ratio ([3]; pre-incubated for 4 hours): >50
- FGFR2/FGFR4 IC50 ratio ([3]; pre-incubated for 4 hours): >10
- FGFR3/FGFR4 IC50 ratio ([3]; pre-incubated for 4 hours): >10
- IC50 [3, 6]: 10 to 30 nM
- IC50 ([3]; pre-incubated for 4 hours): 10 to 30 nM
- IC50 ([4]; read-out: FGFR1 IC50, pre-incubated for 5 to 10 minutes): > 200 nM
- IC50 ([4]; read-out: FGFR1 IC50, pre-incubated for 4 hours): > 200 nM
